Converted amounts (≈) assume the structure as drawn.
Assays:
[1] = tested on: Acinetobacter baumannii ATCC19606; experiment: MIC, broth microdilution; format: cell-based; conditions: Acinetobacter baumannii ATCC19606; for MIC: read-out: MIC A. b. 19606
Experimental: (§1) All target derivatives were assessed for their in vitro antibacterial activities using a broth microdilution assay to test their minimum inhibitory concentrations (MICs) against six Gram-positive strains (S. aureus ATCC31007, S. aureus ATCC25923, S. aureus ATCC43300, E. faecalis ATCC29212, B. subtilis ATCC9372, and S. epidermidis ATCC12228) and four Gram-negative strains (A. baumannii ATCC19606, K. pneumonia ATCC10031, E. coli ATCC25922, and P. aeruginosa ATCC27853). These compounds were also evaluated for their hemolytic activities and membrane selectivity by determining their HC50 (the concentration required to lyse 50% of red blood cells) and SI (HC50/MICs) values, respectively, and vancomycin was used as the positive drug.
(§2) MICs of the derivatives were determined by the micro broth dilution method according to the American Clinical and Laboratory Standards Institute (CLSI) standards. Briefly, 2-fold serial dilutions of target compounds were prepared in 96-well plates containing TSB broth. An equal volume of bacterial suspension (10^6 CFU/mL) was then pipetted into each well, and the mixture was incubated at 37 °C for 24 h. […] All biological experiments were repeated three times.

[2] = tested on: Bacillus subtilis ATCC9372, penicillin-susceptible strain; experiment: MIC, broth microdilution; format: cell-based; conditions: Bacillus subtilis ATCC9372; for MIC: read-out: MIC B. s. 9372
Experimental: as §1, §2

[3] = tested on: Enterococcus faecalis ATCC29212, vancomycin-susceptible strain; experiment: MIC, broth microdilution; format: cell-based; conditions: Enterococcus faecalis ATCC29212; for MIC: read-out: MIC E. f. 29212
Experimental: as §1, §2

[4] = tested on: Escherichia coli ATCC25922, penicillin-susceptible strain; experiment: MIC, broth microdilution; format: cell-based; conditions: Escherichia coli ATCC25922; for MIC: read-out: MIC E. c. 25922
Experimental: as §1, §2

[5] = tested on: Klebsiella pneumonia ATCC10031; experiment: MIC, broth microdilution; format: cell-based; conditions: Klebsiella pneumonia ATCC10031; for MIC: Klebsiella pneumoniae, read-out: MIC K. p. 10031
Experimental: as §1, §2

[6] = tested on: Pseudomonas aeruginosa ATCC27853, penicillin-susceptible strain; experiment: MIC, broth microdilution; format: cell-based; conditions: Pseudomonas aeruginosa ATCC27853; for MIC: read-out: MIC P. a. 27853
Experimental: as §1, §2

[7] = tested on: Staphylococcus aureus ATCC25923, erythromycin-susceptible strain; experiment: MIC, broth microdilution; format: cell-based; conditions: Staphylococcus aureus ATCC25923; for MIC: read-out: MIC S. a. 25923
Experimental: as §1, §2

[8] = tested on: Staphylococcus aureus ATCC31007, penicillin-resistant strain; experiment: MIC, broth microdilution; format: cell-based; conditions: Staphylococcus aureus ATCC31007; for MIC: read-out: MIC S. a. 31007
Experimental: as §1, §2

[9] = tested on: Staphylococcus epidermidis ATCC12228, erythromycin-susceptible strain; experiment: MIC, broth microdilution; format: cell-based; conditions: Staphylococcus epidermidis ATCC12228; for MIC: read-out: MIC S. e. 12228
Experimental: as §1, §2

[10] = tested on: Staphylococcus aureus ATCC43300, methicillin-resistant strain; experiment: microbe, parasite or virus in culture; format: cell-based; conditions: Staphylococcus aureus ATCC43300 (MRSA); for MIC: ATCC 43300 / MRSA, read-out: MIC S. a 43300
Experimental: as §1, §2

[11] = tested on: Enterococcus faecalis ATCC51299, vancomycin-resistant strain; experiment: MIC, broth microdilution; format: cell-based; conditions: Enterococcus faecalis ATCC51299, vancomycin-resistant; for MIC: read-out: MIC E. f. 51299
Experimental: as §2

[12] = tested on: Enterococcus faecium ATCC51559, vancomycin-resistant strain; experiment: MIC, broth microdilution; format: cell-based; conditions: Enterococcus faecium ATCC51559, vancomycin-resistant; for MIC: read-out: MIC E. f. 51559
Experimental: as §2

red blood cells = experiment: Hemolysis assay; format: cell-based, Sheep; conditions: concentration required to lyse 50% of red blood cells; 37 °C, 1 h
Experimental: as §1
To further detect the hemolytic toxicity and therapeutic potential of these derivatives, we proceeded to examine the hemolytic activities and membrane selectivity of these derivatives. The HC50 value was defined as the concentration needed for a compound to lyse 50% of red blood cells, and it is often used to evaluate the hemolytic toxicity to eukaryotic cells. […] The selectivity index (SI) was calculated by HC50/MICs of S. aureus ATCC43300 and was used to assess the potency and safety of the compounds. […] Thus, compound 9h was selected as a representative molecule for the in-depth in vitro and in vivo studies.
Sheep blood was used to isolate red blood cells (RBCs), which were then resuspended in 1× PBS (5%). The compounds were dissolved in PBS to give an initial concentration of 5.12 mg/mL, compound solution (100 μL) was added to the first well of a 96-well plate, two-fold serial dilutions of compounds were prepared in 96-well plates, and then 150 μL of 5% RBC suspension was added to each well. This was followed by incubation at 37 °C for 1 h. After incubation, the plate was centrifuged (3500 rpm, 5 min), and 100 μL of supernatant solution from each well was carefully pipetted into a new plate. The absorbance values were measured at 540 nm. Erythrocyte hemolysis rate = (Absorbancecompound – Absorbance negative control)/(Absorbance1% Triton X-100 − Absorbance negative control) × 100%. All biological experiments were repeated three times.

Compound	MIC [1] [mg/L]	MIC [2] [mg/L]	MIC [3] [mg/L]	MIC [4] [mg/L]	MIC [5] [mg/L]	MIC [6] [mg/L]	MIC [7] [mg/L]	MIC [8] [mg/L]	MIC [9] [mg/L]	MIC [10] [mg/L]	MIC [11] [mg/L]	MIC [12] [mg/L]	HC50 (red blood cells) [µg/mL]	also measured
CCNCCCOc1c(C(C)=O)ccc2c1C=CC(C)(CCC=C(C)C)O2 (stereo not shown) [Compound 5b, 1-(5-(3-(Ethylamino)propoxy)-2-methyl-2-(4-methylpent-3-en-1-yl)-2H-chromen-6-yl)ethan-1-one]	16 (≈ 43.1 µM)	8 (≈ 21.5 µM)	8 (≈ 21.5 µM)	32 (≈ 86.1 µM)	16 (≈ 43.1 µM)	> 128	16 (≈ 43.1 µM)	16 (≈ 43.1 µM)	8 (≈ 21.5 µM)	16 (≈ 43.1 µM)	32 (≈ 86.1 µM)	32 (≈ 86.1 µM)	118.4	–
CC(=O)c1ccc2c(c1OCCCN1CC(C)OC(C)C1)C=CC(C)(CCC=C(C)C)O2 (stereo not shown) [Compound 5d, 1-(5-(3-(2,6-Dimethylmorpholino)propoxy)-2-methyl-2-(4-methylpent-3-en-1-yl)-2H-chromen-6-yl)ethan-1-one]	128 (≈ 290 µM)	> 128	> 128	> 128	128 (≈ 290 µM)	> 128	> 128	> 128	> 128	> 128	> 128	> 128	746.5	–
CC(=O)c1ccc2c(c1OCCCN1CCN(C(C)=O)CC1)C=CC(C)(CCC=C(C)C)O2 (stereo not shown) [Compound 5e, 1-(4-(3-((6-Acetyl-2-methyl-2-(4-methylpent-3-en-1-yl)-2H-chromen-5-yl)oxy)propyl)piperazin-1-yl)ethan-1-one]	128 (≈ 282 µM)	64 (≈ 141 µM)	32 (≈ 70.4 µM)	> 128	> 128	> 128	128 (≈ 282 µM)	128 (≈ 282 µM)	64 (≈ 141 µM)	128 (≈ 282 µM)	128 (≈ 282 µM)	128 (≈ 282 µM)	62.3	–
CC(=O)c1ccc2c(c1OCCCNCCN(C)C)C=CC(C)(CCC=C(C)C)O2 (stereo not shown) [Compound 5f, 1-(5-(3-((2-(Dimethylamino)ethyl)amino)propoxy)-2-methyl-2-(4-methylpent-3-en-1-yl)-2H-chromen-6-yl)ethan-1-one]	8 (≈ 19.3 µM)	8 (≈ 19.3 µM)	8 (≈ 19.3 µM)	8 (≈ 19.3 µM)	8 (≈ 19.3 µM)	32 (≈ 77.2 µM)	16 (≈ 38.6 µM)	16 (≈ 38.6 µM)	8 (≈ 19.3 µM)	8 (≈ 19.3 µM)	32 (≈ 77.2 µM)	32 (≈ 77.2 µM)	127.7	–
CC(=O)c1c(OCCC[n+]2ccccc2)c2c(c3c1OC(C)(CCC=C(C)C)C=C3)OC(C)(CCC=C(C)C)C=C2 (stereo not shown) [Compound 9b, 1-(3-((6-Acetyl-2,8-dimethyl-2,8-bis(4-methylpent-3-en-1-yl)-2H,8H-pyrano[2,3-f]chromen-5-yl)oxy)propyl)pyridin-1-ium]	32	2	2	128	32	> 128	2	4	32	1	4	4	26.6	–
CNCCN(C)CCCOc1c2c(c3c(c1C(C)=O)OC(C)(CCC=C(C)C)C=C3)OC(C)(CCC=C(C)C)C=C2 (stereo not shown) [Compound 9f, 1-(2,8-Dimethyl-5-(3-(methyl(2-(methylamino)ethyl)amino)propoxy)-2,8-bis(4-methylpent-3-en-1-yl)-2H,8H-pyrano[2,3-f]chromen-6-yl)ethan-1-one]	64 (≈ 113 µM)	8 (≈ 14.2 µM)	8 (≈ 14.2 µM)	128 (≈ 227 µM)	16 (≈ 28.3 µM)	> 128	4 (≈ 7.08 µM)	4 (≈ 7.08 µM)	8 (≈ 14.2 µM)	4 (≈ 7.08 µM)	4 (≈ 7.08 µM)	8 (≈ 14.2 µM)	40.3	–
CCN(CC)CCCNCCCOc1c2c(c3c(c1C(C)=O)OC(C)(CCC=C(C)C)C=C3)OC(C)(CCC=C(C)C)C=C2 (stereo not shown) [Compound 9g, 1-(5-(3-((3-(Diethylamino)propyl)amino)propoxy)-2,8-dimethyl-2,8-bis(4-methylpent-3-en-1-yl)-2H,8H-pyrano[2,3-f]chromen-6-yl)ethan-1-one]	4 (≈ 6.59 µM)	2 (≈ 3.3 µM)	1 (≈ 1.65 µM)	4 (≈ 6.59 µM)	8 (≈ 13.2 µM)	32 (≈ 52.7 µM)	2 (≈ 3.3 µM)	4 (≈ 6.59 µM)	1 (≈ 1.65 µM)	4 (≈ 6.59 µM)	32 (≈ 52.7 µM)	32 (≈ 52.7 µM)	34.9	–
colistin [Cos, reference compound]	–	–	–	–	–	–	–	–	–	–	–	–	–	MIC A. b. 19606 [1]: 1 mg/L; MIC B. s. 9372 [2]: 16 mg/L; MIC E. f. 29212 [3]: 128 mg/L; MIC E. c. 25922 [4]: 0.5 mg/L; MIC K. p. 10031 [5]: 1 mg/L; MIC P. a. 27853 [6]: 0.5 mg/L; MIC S. a. 25923 [7]: 128 mg/L; MIC S. a. 31007 [8]: 128 mg/L; MIC S. e. 12228 [9]: 64 mg/L; MIC S. a 43300 [10]: 128 mg/L; MIC E. f. 51299 [11]: >128 mg/L; MIC E. f. 51559 [12]: >128 mg/L

From article PMC11350758, “Development of Xanthoangelol-Derived Compounds with Membrane-Disrupting Effects against Gram-Positive Bacteria” (Antibiotics, 2024)
